Target: T1, cPLA2 (Homo sapiens, UniProt P47712)
T1 sequence (P47712 1-749): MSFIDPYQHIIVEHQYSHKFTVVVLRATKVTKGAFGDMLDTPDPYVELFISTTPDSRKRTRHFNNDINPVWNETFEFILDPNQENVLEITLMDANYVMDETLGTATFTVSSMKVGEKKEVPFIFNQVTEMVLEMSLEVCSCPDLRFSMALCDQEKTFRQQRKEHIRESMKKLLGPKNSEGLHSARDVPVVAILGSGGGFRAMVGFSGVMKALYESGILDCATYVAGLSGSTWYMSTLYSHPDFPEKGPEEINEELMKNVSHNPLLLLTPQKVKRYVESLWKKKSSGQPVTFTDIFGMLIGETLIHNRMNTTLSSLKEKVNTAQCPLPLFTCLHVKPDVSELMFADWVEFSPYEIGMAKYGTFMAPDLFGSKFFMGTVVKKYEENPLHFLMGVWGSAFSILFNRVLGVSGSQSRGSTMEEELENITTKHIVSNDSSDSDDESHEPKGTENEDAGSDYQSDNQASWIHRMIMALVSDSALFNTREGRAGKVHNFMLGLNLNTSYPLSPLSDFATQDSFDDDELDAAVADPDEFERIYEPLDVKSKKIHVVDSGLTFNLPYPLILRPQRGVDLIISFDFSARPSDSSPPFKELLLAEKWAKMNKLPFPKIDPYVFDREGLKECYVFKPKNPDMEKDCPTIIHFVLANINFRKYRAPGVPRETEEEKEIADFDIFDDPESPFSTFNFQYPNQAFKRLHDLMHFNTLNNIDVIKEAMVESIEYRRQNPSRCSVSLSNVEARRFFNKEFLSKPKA
Experiment: cPLA2 inhibitory activity
Assay type: biochemical
Settings: for IC50: 1-palmitoyl-2-[14C]-arachidonoyl-sn-glycero-3-phosphocholine liposomes, 15 min at 37° C.
Protocol: The compounds of the present invention were tested for the cPLA2 inhibitory activity according to the method disclosed in […]. Roberts, […], and J. E. Putnam, J. Biol. Chem., 1991, 266, 5268-5272 as outlined below. […] The reaction mixture includes 50 mM HEPES buffer (pH 7.5), 1 mM calcium chloride, 150 mM sodium chloride, 0.1 mg/ml bovine serum albumin, and 1.7 mM dithiothreitol. To the reaction mixture was added the compound of the present invention and the substrate solution. The reaction was allowed to start by adding an enzyme and continued for 15 min at 37° C. The fatty acids released by the reaction were extracted by the method described in V. P. Dole, and H. Meinertz, J. Biol. Chem., 1960, 235, 2595-2599 and its radiation activity was measured on a liquid scintillation counter. Control was obtained by conducting the experiment in the same manner except that a compound of the present invention was not added.

For CC(C)CN(C(c1ccccc1)c1ccccc1)[C@@H]1C[C@@H](CNC(=O)c2ccc(/C=C3\SC(=O)NC3=O)cc2)N(C(=O)c2ccccc2C(=O)c2ccccc2)C1 [Compound A-1], the IC50 was 33 nM.

For CC(C)CN(C1CC(CNC(=O)c2ccc(C=C3SC(=O)NC3=O)cc2)N(C(=O)c2ccccc2C(=O)c2ccccc2F)C1)C(c1ccccc1)c1ccccc1 (stereo not shown) [Compound A-2], the IC50 was 14 nM.

CC(C)CN(C1CC(CNC(=O)c2ccc(C=C3SC(=O)NC3=O)cc2)N(C(=O)c2ccccc2C(=O)c2cccc(F)c2)C1)C(c1ccccc1)c1ccccc1 (stereo not shown) [Compound A-3] gave an IC50 of 94 nM.

In the case of CC(C)CN(C1CC(CNC(=O)c2ccc(C=C3SC(=O)NC3=O)cc2)N(C(=O)c2ccccc2C(=O)c2c(F)cccc2F)C1)C(c1ccccc1)c1ccccc1 (stereo not shown) [Compound A-5], the IC50 is reported as 7.4 nM.

CC(C)CN(C1CC(CNC(=O)c2ccc(C=C3SC(=O)NC3=O)cc2)N(C(=O)c2cccc(F)c2C(=O)c2ccc(F)cc2F)C1)C(c1ccccc1)c1ccccc1 (stereo not shown) [Compound A-6] was tested, and the IC50 was 4.5 nM.

CC(C)CN(C1CC(CNC(=O)c2ccc(C=C3SC(=O)NC3=O)cc2)N(C(=O)c2c(F)cccc2C(=O)c2ccc(F)cc2F)C1)C(c1ccccc1)c1ccccc1 (stereo not shown) [Compound A-7] was tested, and the IC50 was 5.1 nM.

In the case of CC(C)CN(C1CC(CNC(=O)c2ccc(C=C3SC(=O)NC3=O)cc2)N(C(=O)c2ccc(F)cc2C(=O)c2ccc(F)cc2F)C1)C(c1ccccc1)c1ccccc1 (stereo not shown) [Compound A-8], the IC50 is reported as 5 nM.

In the case of CC(C)CN(C1CC(CNC(=O)c2ccc(C=C3SC(=O)NC3=O)cc2)N(C(=O)c2cc(F)ccc2C(=O)c2ccc(F)cc2F)C1)C(c1ccccc1)c1ccccc1 (stereo not shown) [Compound A-9], the IC50 is reported as 2 nM.

In the case of COc1ccc(C(=O)c2ccc(F)cc2F)c(C(=O)N2CC(N(CC(C)C)C(c3ccccc3)c3ccccc3)CC2CNC(=O)c2ccc(C=C3SC(=O)NC3=O)cc2)c1 (stereo not shown) [Compound A-10], the IC50 is reported as 29 nM.

In the case of CC(C)CN(C1CC(CNC(=O)c2ccc(C=C3SC(=O)NC3=O)cc2)N(C(=O)c2cc(Cl)ccc2C(=O)c2ccc(F)cc2F)C1)C(c1ccccc1)c1ccccc1 (stereo not shown) [Compound A-11], the IC50 is reported as 5.2 nM.

CC(C)CN(C1CC(CNC(=O)c2ccc(C=C3SC(=O)NC3=O)s2)N(C(=O)c2ccccc2C(=O)c2ccc(F)cc2F)C1)C(c1ccccc1)c1ccccc1 (stereo not shown) [Compound A-12] was tested, and the IC50 was 2.1 nM.

Molecule CC(C)CN(Cc1ccccc1-c1ccccc1)[C@@H]1C[C@@H](CNC(=O)/C=C/c2ccc(/C=C3\SC(=O)NC3=O)cc2)N(C(=O)c2ccccc2C(=O)c2ccc(F)cc2F)C1 [Compound A-14] has an IC50 of 1.8 nM.

Molecule O=C(/C=C/c1ccc(/C=C2\SC(=O)NC2=O)cc1)NC[C@@H]1C[C@@H](N(Cc2ccccc2)C(c2ccccc2)c2ccccc2)CN1C(=O)c1ccccc1C(=O)c1ccc(F)cc1F [Compound A-17] has an IC50 of 3.7 nM.

With O=C1NC(=O)C(=Cc2ccc(C(=O)NCC3CC(SCc4c(-c5ccccc5)cccc4-c4ccccc4)CN3C(=O)c3ccccc3C(=O)c3ccc(F)cc3F)cc2)S1 (stereo not shown) [Compound B-2] the IC50 was 20 nM.

For COc1ccc(C(SC2CC(CNC(=O)c3ccc(C=C4SC(=O)NC4=O)cc3)N(C(=O)c3ccccc3C(=O)c3ccc(F)cc3F)C2)(c2ccccc2)c2ccc(OC)cc2)cc1 (stereo not shown) [Compound B-3], the IC50 was 9 nM.

O=C1NC(=O)C(=Cc2ccc(C(=O)NCC3CC(SC(c4ccccc4)(c4cccc(F)c4)c4cccc(F)c4)CN3C(=O)c3ccccc3C(=O)c3ccc(F)cc3F)cc2)S1 (stereo not shown) [Compound B-4] was tested, and the IC50 was 2.6 nM.

Molecule O=C1NC(=O)C(=Cc2ccc(C(=O)NCC3CC(SC(c4ccccc4)(c4ccccc4)c4cc(F)cc(F)c4)CN3C(=O)c3ccccc3C(=O)c3ccc(F)cc3F)cc2)S1 (stereo not shown) [Compound B-5] has an IC50 of 2.7 nM.

In the case of Cc1cc(C)cc(C(SC2CC(CNC(=O)c3ccc(C=C4SC(=O)NC4=O)cc3)N(C(=O)c3ccccc3C(=O)c3ccc(F)cc3F)C2)(c2ccccc2)c2ccccc2)c1 (stereo not shown) [Compound B-6], the IC50 is reported as 1.3 nM.

Molecule Cc1cccc(C(SC2CC(CNC(=O)c3ccc(C=C4SC(=O)NC4=O)cc3)N(C(=O)c3ccccc3C(=O)c3ccc(F)cc3F)C2)(c2ccccc2)c2cccc(C)c2)c1 (stereo not shown) [Compound B-7] has an IC60 (0.25 h, Table 10, same assay) of 1.4 nM.

Reference: patent publication US6924301B1, “Composition for treating or preventing arrhythmia” (Shionogi & Co., Ltd., priority 1999, dated 2005)
